In publication PMC8979220 (RSC Advances, 2022):
≈ marks a conversion by molar mass, not a printed value.

These compounds were tested against acetylcholinesterase (acetyl cholinesterase) (assay: in vitro AChE inhibition assay).
Type: biochemical, Electrophorus electricus

Question: How did the “IC50 (μg ml^-1) ± SEM” value turn out when `O=C1C(=O)N(CCOc2ccccc2)c2ccccc21` [PI1, 1-(2-Phenoxyethyl)indoline-2,3-dione] was run?
Answer: 0.52 ± 0.073 µg/mL (≈ 1.95 µM)

Question: `O=C1C(=O)N(CCOc2ccc(Cl)cc2)c2ccccc21` [PI2, 1-(2-(4-Chlorophenoxy)ethyl)indoline-2,3-dione] was tested. Which “IC50 (μg ml^-1) ± SEM” value did it give?
Answer: 0.72 ± 0.012 µg/mL (≈ 2.39 µM)

Question: Which “IC50 (μg ml^-1) ± SEM” value does the source give for `O=C1C(=O)N(CCOc2ccc(F)cc2)c2ccccc21` [PI4, 1-(2-(4-Fluorophenoxy)ethyl)indoline-2,3-dione] here?
Answer: 0.68 ± 0.011 µg/mL (≈ 2.38 µM)

Question: How did the “IC50 (μg ml^-1) ± SEM” value turn out when `O=C1C(=O)N(CCOc2ccc(Cl)cc2)c2ccc(Cl)cc21` [PI6, 5-Chloro-1-(2-(4-chlorophenoxy)ethyl)indoline-2,3-dione] was run?
Answer: 0.91 ± 0.015 µg/mL (≈ 2.71 µM)

Question: Which “IC50 (μg ml^-1) ± SEM” value does the source give for `O=C1C(=O)N(CCOc2ccccc2)c2ccc(Br)cc21` [PI9, 5-Bromo-1-(2-phenoxyethyl)indoline-2,3-dione] here?
Answer: 0.91 ± 0.083 µg/mL (≈ 2.63 µM)

Question: How did the “IC50 (μg ml^-1) ± SEM” value turn out when `O=C1C(=O)N(CCOc2ccc(Cl)cc2)c2ccc(Br)cc21` [PI10, 5-Bromo-1-(2-(4-chlorophenoxy)ethyl)indoline-2,3-dione] was run?
Answer: 0.98 ± 0.055 µg/mL (≈ 2.57 µM)

Question: How did the “IC50 (μg ml^-1) ± SEM” value turn out when `O=C1C(=O)N(CCOc2ccc(Br)cc2)c2ccc(Br)cc21` [PI11, 5-Bromo-1-(2-(4-bromophenoxy)ethyl)indoline-2,3-dione] was run?
Answer: 1.14 ± 0.013 µg/mL (≈ 2.68 µM)

Question: For `O=C1C(=O)N(CCOc2ccc(F)cc2)c2ccc(Br)cc21` [PI12, 5-Bromo-1-(2-(4-fluorophenoxy)ethyl)indoline-2,3-dione], which “IC50 (μg ml^-1) ± SEM” value is on record?
Answer: 1.31 ± 0.083 µg/mL (≈ 3.6 µM)
